According to PMC6146285 (Journal of pharmacological and toxicological methods, 2018):
Read-outs that look alike come from different tables or passages of the source. Each block holds one molecule with its values, some of them ahead of it.

How the values were obtained:
Format in all cases: cell-based, human
hiPSC-CMs = details: for Arrhythmia incidence by dose level: all sites and cell types tested; for FPDmax compared to pre-addition values: 30 min post compound addition, low risk compounds; for Arrhythmia: one site; for Inotropic effect (impedance signal): hiPSC-CMs; for Average % change in EFP amplitude / FPDmax: with increasing concentrations; for FPD prolongation: cell types other than CLS
[1] = test system: CDI (iCell Cardiomyocytes^2, Cellular Dynamics International) hiPSC-CMs
[2] = test system: PLR (Pluricyte Cardiomyocytes, Ncardia) hiPSC-CMs
[3] = test system: AXG (Cor.4U, Ncardia) hiPSC-CMs
[4] = test system: CLS (Cellartis Cardiomyocytes, Takara Bio Clontech) hiPSC-CMs
[5] = all sites and cell types, dose levels of Table 3

Compound: COc1ccc(CCN2CCC(Nc3nc4ccccc4n3Cc3ccc(F)cc3)CC2)cc1 [Astemizole]
Arrhythmia incidence by dose level (hiPSC-CMs; dose levels of Table 3): arrhythmia in most cases at dose 3, and almost all cases at dose 4

Compound: CN(C)CCCN1c2ccccc2Sc2ccc(Cl)cc21 [Chlorpromazine]
Arrhythmic events (hiPSC-CMs; independent of the cell type or site): did not induce arrhythmic events

Compound: COc1cc(N)c(Cl)cc1C(=O)NC1CCN(CCCOc2ccc(F)cc2)CC1OC (stereo not drawn) [Cisapride]
Arrhythmia incidence by dose level (hiPSC-CMs; dose levels of Table 3): arrhythmia in most cases at dose 3, and almost all cases at dose 4

Compound: CC[C@H]1OC(=O)[C@H](C)[C@@H](O[C@H]2C[C@@](C)(OC)[C@@H](O)[C@H](C)O2)[C@H](C)[C@@H](O[C@@H]2O[C@H](C)C[C@H](N(C)C)[C@H]2O)[C@](C)(OC)C[C@@H](C)C(=O)[C@H](C)[C@@H](O)[C@]1(C)O [Clarithromycin]
Arrhythmia incidence by dose level (hiPSC-CMs; dose levels of Table 3): arrhythmia in most cases at dose 3, and almost all cases at dose 4

BRCoV ([1]; CDI, post addition of 10 μM): large increase
Compound: CC(C)NCC(O)c1ccc(NS(C)(=O)=O)cc1 (stereo not drawn) [D,l Sotalol]
Arrhythmic events ([1]; CDI, 10 μM): EAD-like events and ectopic beats
Beat rate ([1]; CDI, post addition of 10 μM): decrease
Impedance amplitude ([1]; CDI, post addition of 10 μM): remains unchanged
Arrhythmia detection starting at (dose level) (hiPSC-CMs; [5]): dose 3

FPDmax compared to pre-addition values (hiPSC-CMs): decrease
Compound: COc1ccc([C@@H]2Sc3ccccc3N(CCN(C)C)C(=O)[C@@H]2OC(C)=O)cc1 [Diltiazem]

FPDmax (hiPSC-CMs; all cell types at one site): increased
Compound: CC(C)N(CCC(C(N)=O)(c1ccccc1)c1ccccn1)C(C)C (stereo not drawn) [Disopyramide]
Arrhythmia (hiPSC-CMs; 10 and 100 μM): Arrhythmia was detected
Arrhythmia detection starting at (dose level) (hiPSC-CMs; [5]): dose 3
Inotropic effect (impedance signal) (hiPSC-CMs): negative inotropic effect
Average % change in impedance amplitude (hiPSC-CMs; with increasing concentration, all cell types at one site): decreased
Average % change in EFP amplitude (hiPSC-CMs; all cell types at one site): decreased

FPDmax (hiPSC-CMs; all cell types at one site): increased
Compound: O=c1[nH]c2ccccc2n1CCCN1CCC(n2c(=O)[nH]c3cc(Cl)ccc32)CC1 [Domperidone]
Arrhythmia (hiPSC-CMs; 0.3, 3 μM): arrhythmia is marked
Arrhythmia incidence by dose level (hiPSC-CMs; dose levels of Table 3): arrhythmia in most cases at dose 3, and almost all cases at dose 4
Inotropic effect (impedance signal) (hiPSC-CMs): negative inotropic effect
Average % change in EFP amplitude (hiPSC-CMs; all cell types at one site): decreased

FPDmax ([2]; 0.3 μM): increase
Beat rate coefficient of variation ([2]; post addition of 0.3 μM): increase
Compound: O=C(CCCN1CC=C(n2c(=O)[nH]c3ccccc32)CC1)c1ccc(F)cc1 [Droperidol]
Arrhythmia incidence by dose level (hiPSC-CMs; dose levels of Table 3): arrhythmia in most cases at dose 3, and almost all cases at dose 4
Arrhythmic events ([2]; 0.3 μM): rolling EAD-like events
Beat rate ([2]; post addition of 0.3 μM): decrease
Impedance amplitude ([2]; post addition of 0.3 μM): remains unchanged

FPDmax compared to pre-addition values (hiPSC-CMs): not a significant change
Compound: CCOC(=O)N1CCC(=C2c3ccc(Cl)cc3CCc3cccnc32)CC1 [Loratadine]

FPDmax compared to pre-addition values (hiPSC-CMs): decrease
Compound: COC(=O)C1=C(C)NC(C)=C(C(=O)OC)C1c1ccccc1[N+](=O)[O-] [Nifedipine]
Inotropic effect (impedance signal) (hiPSC-CMs): negative inotropic effect
Chronic effect on cell viability (base impedance) ([3]; AXG, recorded over 24 h): time and concentration-dependent reduction of cell viability

FPDmax compared to pre-addition values (hiPSC-CMs): decrease
Compound: CCOC(=O)C1=C(C)NC(C)=C(C(=O)OC)C1c1cccc([N+](=O)[O-])c1 (stereo not drawn) [Nitrendipine]

Compound: Cc1nccn1CC1CCc2c(c3ccccc3n2C)C1=O (stereo not drawn) [Ondansetron]
Arrhythmia incidence by dose level (hiPSC-CMs; dose levels of Table 3): arrhythmia in most cases at dose 3, and almost all cases at dose 4

Compound: O=c1[nH]c2ccccc2n1C1CCN(CCCC(c2ccc(F)cc2)c2ccc(F)cc2)CC1 [Pimozide]
Arrhythmia incidence by dose level (hiPSC-CMs; dose levels of Table 3): arrhythmia in most cases at dose 3, and almost all cases at dose 4
Arrhythmogenicity ([3]; site 4, AXG cells): not arrhythmogenic

Compound: C=C[C@H]1C[N@@]2CC[C@H]1C[C@@H]2[C@@H](O)c1ccnc2ccc(OC)cc12 [Quinidine]
Arrhythmia detection starting at (dose level) (hiPSC-CMs; [5]): dose 2
Incidence of FPDmax>10% or > 30% started at (dose level) (hiPSC-CMs; [5]): dose 1

Compound: Cc1nc2n(c(=O)c1CCN1CCC(c3noc4cc(F)ccc34)CC1)CCCC2 [Risperidone]
Change in the FPD ([1]; CDI cells): > 10%
Change in the FPD ([4]; CLS cells): no significant change
Change in the FPD ([3]; AXG cells): no significant change

Compound: CC/C(=C(\c1ccccc1)c1ccc(OCCN(C)C)cc1)c1ccccc1 [Tamoxifen]
Decrease of average % change in EFP amplitude ([1]; CDI, 3 μM, one site): ~ 40%
Decrease of average % change in FPDmax ([1]; CDI, 3 μM, one site): ~ 40%
Increase in beat rate ([1]; CDI, 3 μM, one site): ~ 40%
Changes in average impedance signals ([1]; CDI, 0.3, 0.9 and 3 μM): No significant changes

Number of experiments with quiescence (hiPSC-CMs; other experiments): 4
Compound: CC(C)(C)c1ccc(C(O)CCCN2CCC(C(O)(c3ccccc3)c3ccccc3)CC2)cc1 (stereo not drawn) [Terfenadine]
Number of experiments with arrhythmia (hiPSC-CMs; site 4, AXG and site 4, CLS): 2

Compound: COc1cc2c(Nc3ccc(Br)cc3F)ncnc2cc1OCC1CCN(C)CC1 [Vandetanib]
Arrhythmia detection starting at (dose level) (hiPSC-CMs; [5]): dose 3

Compound: CN(CCOc1ccc(NS(C)(=O)=O)cc1)CCc1ccc(NS(C)(=O)=O)cc1 [dofetilide]
FPD prolongation (hiPSC-CMs; 0.5 nM): approx. 10%
FPD prolongation (hiPSC-CMs; 10 nM, arrhythmia present): ~100%
Effect on FPD and arrhythmia (hiPSC-CMs; wells treated with 5 nM and 10 nM): prolongation of FPD and arrhythmia
FPD prolongation upon application ([4]; CLS hiPSC-CMs, 0.5-10 nM): did not exhibit an expected FPD prolongation
